Assay [1] has as its target T1, α2 (presynaptic α)-adrenoceptor (Rattus norvegicus, UniProt P22909).
T1 construct: from tissue; host or cells: rat vas deferens (desheathed, field stimulated)
T1 sequence (P22909 1-465): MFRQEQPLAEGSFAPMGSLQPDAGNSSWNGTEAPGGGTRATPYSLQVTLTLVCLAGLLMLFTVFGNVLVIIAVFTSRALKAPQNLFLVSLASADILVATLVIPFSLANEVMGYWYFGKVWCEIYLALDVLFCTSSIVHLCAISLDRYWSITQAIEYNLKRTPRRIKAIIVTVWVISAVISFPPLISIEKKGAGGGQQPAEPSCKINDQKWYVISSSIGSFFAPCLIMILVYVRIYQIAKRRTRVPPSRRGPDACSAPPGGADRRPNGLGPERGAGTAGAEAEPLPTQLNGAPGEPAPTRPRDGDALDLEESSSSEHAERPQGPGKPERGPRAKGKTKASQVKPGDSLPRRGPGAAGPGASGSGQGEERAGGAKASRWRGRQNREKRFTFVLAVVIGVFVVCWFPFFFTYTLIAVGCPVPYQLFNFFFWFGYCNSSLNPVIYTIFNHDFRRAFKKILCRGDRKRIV
In words: α2-adrenoceptor antagonistic activity on the rat field stimulated vas deferens preparation (clonidine agonist). The conditions noted are these: clonidine as agonist, Arunlakshana & Schild; for Kb: read-out: pA2 (α2) (converted); for pA2 (α2): 90 min. The format is cell-based. As to the method: The compounds of the invention were tested for their α2 -adrenoceptor antagonistic activity on the rat field stimulated vas deferens preparation using a modification of the method of Drew, Eur.J.Pharmac., 1977, 42, 123-130. The procedure is described below. […] from sexually mature rats were suspended in a 6 ml organ bath in Krebs solution at 37° and bubbled with 5% CO2 in oxygen. Platinum ring electrodes were positioned above and below the tissue for field stimulation, the stimulus parameters being 0.1 Hz 1 ms pulse width at supramaximal voltage. Twitch responses were recorded isotonically with a 0.5 g loading. […] After washing out clonidine, the twitch response quickly recovered and an antagonist was then introduced into the Krebs reservoir. Clonidine concentration-response curves were repeated 90 min after introduction of the antagonist. The concentration of clonidine producing 50% inhibition of twitch before and after introduction of antagonist were obtained and the dose-ratio for clonidine was calculated. Various concentrations of the antagonists were used. […] Chemother., 1959, 14, 48-58 and the values of pA2 and slope were calculated.

For assay [2], the system named is postsynaptic (α1) α-adrenoceptor. In words: postsynaptic (α1) antagonistic activity on the isolated anococcygeus muscle of the rat (phenylephrine or methoxamine agonist). In kind it is cell-based. An excerpt:
(§1) The postsynaptic(α1)antagonistic activity can be evaluated by a number of different methods. One method involves assessing the activity on the isolated anococcygeus muscle of the rat. The method is based on that of Gillespie, Br.J.Pharmac., 1972, 45, 404-416. In the procedure male rats (250-360 g) are killed by a blow on the head and bled. The two anococcygeus muscles are removed from their position in the midline of the pelvic cavity, where they arise from the upper coccygeal vertebrae. The muscles are suspended in 5 ml organ baths in Krebs solution containing 10^-4 M ascorbic acid, to prevent drug oxidation. The tissues are gassed with a 95% oxygen, 5% CO2 mixture and maintained at 37°. Longitudinal muscle contractions are recorded using isotonic transducers. Cumulative dose response curves are then obtained to phenylephrine or in some cases methoxamine, both agents being postsynaptic alpha adrenoceptor agonists. The concentration range of phenylephrine or methoxamine used is 0.02 to 0.8 μg.ml^-1. The agonist is then washed from the bath and the test drug added to the bathing medium at a concentration of 10^-6 M. After 30 min. equilibration with the test drug a further agonist dose response curve is obtained. The washing, equilibration and agonists dosing procedures are then repeated using 10^-5 M and 10^-4 M solutions of the test drug. Estimates of the pA2 value for the test drug as an antagonist of phenylephrine or methoxamine were made from the agonist dose-ratios using the method of Arunlakshana & Schild, Br.J.Pharmac.Chemother., 1959, 14, 48-58.

Assay [3] concerns the target T2, postsynaptic (α1) α-adrenoceptor (Rattus norvegicus, UniProt P43140).
T2 construct: the isolated anococcygeus muscle of the rat; from tissue; host or cells: rat anococcygeus muscle (male rats, 250-360 g)
T2 sequence (P43140 1-466): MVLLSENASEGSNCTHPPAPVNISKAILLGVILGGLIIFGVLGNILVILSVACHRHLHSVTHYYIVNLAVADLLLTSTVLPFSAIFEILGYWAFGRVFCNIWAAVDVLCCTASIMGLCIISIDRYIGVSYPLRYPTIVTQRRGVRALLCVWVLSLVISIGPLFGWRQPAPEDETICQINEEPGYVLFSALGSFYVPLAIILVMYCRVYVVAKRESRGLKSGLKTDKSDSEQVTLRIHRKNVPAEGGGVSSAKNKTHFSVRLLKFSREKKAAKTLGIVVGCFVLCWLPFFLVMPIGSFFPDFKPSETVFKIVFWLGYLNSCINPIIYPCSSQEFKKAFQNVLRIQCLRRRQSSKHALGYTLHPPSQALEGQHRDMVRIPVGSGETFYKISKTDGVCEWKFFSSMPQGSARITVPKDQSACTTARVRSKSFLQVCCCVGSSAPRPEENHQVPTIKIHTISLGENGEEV
The description is as above. The format is cell-based. To be noted: rat anococcygeus muscle; phenylephrine or methoxamine as agonist; α1; read-out: pA2 (postsynaptic) (converted).
Excerpt: as §1

The subject of assay [4] is human blood platelets. In words: inhibition of adrenaline-induced aggregation in vitro of human blood platelets. In kind it is cell-based.
The subject of assay [5] is hyperglycaemia induced by the α2 agonist clonidine. In words: inhibition of clonidine-induced hyperglycaemia in rats. The format is in vivo, rat. The conditions noted are these: 10 mg/kg, clonidine 15 μg/kg subcutaneous.

Regarding `CCCS(=O)(=O)N[C@@H]1CCN2CCc3ccccc3[C@@H]2C1` (relative stereo) [2β-(n-propanesulphonamido-1,3,4,6,7,11bα-hexahydro-2H--benzo[a]quinolizine, reference compound], the Kb in assay [1] is 316 nM.
The compound `CCS(=O)(=O)N(C)[C@@H]1CCN2CCc3ccccc3[C@@H]2C1` (relative stereo) [B, N-Methyl-N-(1,3,4,6,7,11bα-hexahydro-2H-benzo[a]quinolizin-2β-yl)ethanesulphonamide] showed a α2 selectivity in assay [2] of 34. For the same compound, the values for the Kb in assay [3] and in assay [1] were 676 nM and 20 nM, respectively.
With `CCCS(=O)(=O)N(C)[C@@H]1CCN2CCc3ccccc3[C@@H]2C1` (relative stereo) [C, N-Methyl-N-(1,3,4,6,7,11bα-hexahydro-2H-benzo[a]quinolizin-2β-yl)propan-1-sulphonamide], in assay [4], the “inhibition of the aggregation in vitro of human blood platelets induced by adrenaline” value is “inhibit the aggregation”. In assay [2], the α2 selectivity stood at 144. Moreover, the Kb in assay [3] was 724 nM; in assay [1], 5.01 nM.
For `CN([C@@H]1CCN2CCc3ccccc3[C@@H]2C1)S(=O)(=O)c1ccccc1` (relative stereo) [D, N-methyl-N-(1,3,4,6,7,11bα-hexahydro-2H-benzo[a]quinolizin-2β-yl)benzenesulphonamide], the “inhibition of the hyperglycaemia induced by clonidine” value in assay [5] is on record as “inhibited the hyperglycaemia”. The same compound displayed a α2 selectivity in assay [2] of 102. Also, the results for the Kb in assay [3] and in assay [1] were 457 nM and 3.98 nM, respectively.
Turning to `CCN([C@@H]1CCN2CCc3ccccc3[C@@H]2C1)S(C)(=O)=O` (relative stereo) [E, N--Ethyl-N--(1,3,4,6,7,11bα-hexahydro-2H--benzo[a]quinolizin-2-62-yl)methanesulphonamide], the α2 selectivity in assay [2] is 35.5. Also, the Kb is 562 nM in assay [3] and 15.8 nM in assay [1].
In assay [2], `Cc1ccc(S(=O)(=O)N(C)[C@@H]2CCN3CCc4ccccc4[C@@H]3C2)cc1` (relative stereo) [F, N-Methyl-N-(1,3,4,6,7,11bα-hexahydro-2H-benzo[a]quinolizin-2β-yl)toluene-4-sulphonamide] came in with a α2 selectivity of 59. For the same compound, the Kb was 468 nM in assay [3] and 7.94 nM in assay [1].
In the case of `COc1ccc(S(=O)(=O)N(C)[C@@H]2CCN3CCc4ccccc4[C@@H]3C2)cc1` (relative stereo) [G, N-Methyl-N-(1,3,4,6,7,11bα-hexahydro-2H-benzo[a]quinolizin-2β-yl)-4-methoxybenzenesulphonamide], in assay [2], the α2 selectivity amounted to 40. In addition, the Kb in assay [3] was 316 nM; in assay [1], 7.94 nM.
Take `CN([C@@H]1CCN2CCc3ccccc3[C@@H]2C1)S(=O)(=O)c1ccc(Cl)cc1` (relative stereo) [H, N-Methyl-N-(1,3,4,6,7,11bα-hexahydro-2H-benzo[a]quinolizin-2β-yl)-4-chlorobenzenesulphonamide]: the α2 selectivity in assay [2] is listed as 32. Besides, the Kb is 813 nM in assay [3] and 25.1 nM in assay [1].
For `Cc1ccccc1S(=O)(=O)N(C)[C@@H]1CCN2CCc3ccccc3[C@@H]2C1` (relative stereo) [I, N-Methyl-N-(1,3,4,6,7,11bα-hexahydro-2H-benzo[a]quinolizin-2β-yl)-2-methylbenzenesulphonamide], in that order: 40, 537 nM and 12.6 nM.
Regarding `CN([C@@H]1CCN2CCc3ccccc3[C@@H]2C1)S(=O)(=O)c1ccc(Cl)c(Cl)c1` (relative stereo) [J, N-Methyl-N-(1,3,4,6,7,11bα-hexahydro-2H-benzo[a]quinolizin-2β-yl)-3,4-dichlorobenzenesulphonamide], the α2 selectivity in assay [2] was determined as 93. In addition, the values for the Kb in assay [3] and in assay [1] were 3310 nM and 31.6 nM, respectively.
With `CCCCS(=O)(=O)N(C)[C@@H]1CCN2CCc3ccccc3[C@@H]2C1` (relative stereo) [K, N-Methyl-N-(1,3,4,6,7,11bα-hexahydro-2H-benzo[a]quinolizin-2β-yl)-n-butanesulphonamide], the α2 selectivity in assay [2] is 19. In addition, the Kb in assay [3] is 251 nM; in assay [1], 12.6 nM.
As to `CC(C)CS(=O)(=O)N(C)[C@@H]1CCN2CCc3ccccc3[C@@H]2C1` (relative stereo) [L, N-Methyl-N-(1,3,4,6,7,11bα-hexahydro-2H-benzo[a]quinolizin-2β-yl)-isobutanesulphonamide], the “inhibition of the hyperglycaemia induced by clonidine” value in assay [5] is listed as “inhibited the hyperglycaemia”. For the same compound, in assay [2], the α2 selectivity is 93. The Kb is 324 nM in assay [3] and 3.16 nM in assay [1].
Regarding `CCCN([C@@H]1CCN2CCc3ccccc3[C@@H]2C1)S(C)(=O)=O` (relative stereo) [N--(n-Propyl)-N--(1,3,4,6,7,11bα-hexahydro-2H--benzo[a]quinolizin-2β-yl)methanesulphonamide, reference compound], the Kb in assay [1] was 100 nM.
Take `COc1cc2c(cc1OC)[C@@H]1C[C@H](N(C)S(C)(=O)=O)CCN1CC2` (relative stereo) [N--methyl-N--(9,10-dimethoxy-1,3,4,6,7,11bα-hexahydro-2H--benzo[a]quinolizin-2β-yl)-methanesulphonamide, reference compound]: the Kb in assay [1] is 158 nM.
In the case of `O=C(Nc1ccccc1)NC1CCN2CCc3ccccc3C2C1` (centres unmarked) [1-(1,3,4,6,7,11b-hexahydro-2H benzo[a]quinolizin-2yl)-3-phenyl urea, reference compound], the Kb in assay [1] is 3980 nM.
Same read-out and setting: under `S=C(Nc1ccccc1)NC1CCN2CCc3ccccc3C2C1` (centres unmarked) [1-(1,3,4,6,7,11b-hexahydro-2H--benzo[a]quinolizin-2yl)-3-phenylthiourea, reference compound] stands 2510 nM; under `CS(=O)(=O)NC1CCN2CCc3ccccc3C2C1` (centres unmarked) [2-methanesulphonamido-1,3,4,6,7,11b-hexahydro-2H--benzo[a]quinolizine, reference compound], 126 nM.
Consider `O=S(=O)(NC1CCN2CCc3ccccc3C2C1)c1ccccc1` (stereo not drawn) [2β-phenylsulphonamido-1,3,4,6,7,11b-hexahydro-2H--benzo[a]quinolizine, reference compound], for which the “pA2 (α2)” value in assay [1] was 6.4.
For `CCS(=O)(=O)NC1CCN2CCc3ccccc3C2C1` (centres unmarked) [2βethanesulphonamido-1,3,4,6,7,11b-hexahydro-2H--benzo[a]quinolizine, reference compound], the “pA2 (α2)” value in assay [1] was determined as 5.3.
